What was measured:
Format in all cases: in vivo
Design in all cases: key: 0 is no effect; 10 is complete control
[1] = test system: duck salad (Heteranthera limosa); experiment: Test B flood test
Outline: (§1)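 Plants were grown to the 2-leaf stage before treatment with test chemical, then held in a greenhouse for twelve to sixteen days. Injury was visually rated against untreated controls on a 0–10 scale, where 0 is no effect and 10 is complete control.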

[2] = test system: rice (Oryza sativa); experiment: Test B flood test
Outline: as §1

[3] = test system: bamyardgrass (Echinochloa crus-galli); experiment: Test B flood test
Outline: as §1

[4] = test system: smallflower flatsedge (Cyperus difformis); experiment: Test B flood test
Outline: as §1

[5] = test system: rape (Brassica napus); experiment: Test B pre-/postemergence
Outline: (§2)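 Seeds were planted and sprayed preemergence, while plants at 2 to 18 cm (1- to 4-leaf stage) were sprayed postemergence at the same time, with test chemical in a non-phytotoxic solvent mixture containing surfactant. After twelve to sixteen days in a greenhouse, injury was rated visually against untreated controls on a 0–10 scale.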

[6] = test system: corn (Zea mays); experiment: Test B pre-/postemergence; conditions: for Corn plant response rating: Preemergence
Outline: as §2

[7] = test system: wheat (Triticum aestivum); experiment: Test B pre-/postemergence
Outline: as §2

[8] = test system: soybean (Glycine max); experiment: Test B pre-/postemergence
Outline: as §2

[9] = test system: sugar beet (Beta vulgaris); experiment: Test B pre-/postemergence
Outline: as §2

[10] = test system: velvetleaf (Abutilon theophrasti); experiment: Test B pre-/postemergence
Outline: as §2

[11] = test system: bedstraw (Galium aparine); experiment: Test B pre-/postemergence; conditions: for Bedstraw plant response rating: Preemergence
Outline: as §2

[12] = test system: giant foxtail (Setaria faberii); experiment: Test B pre-/postemergence
Outline: as §2

[13] = test system: wild oat (Avena fatua); experiment: Test B pre-/postemergence
Outline: as §2

[14] = test system: broadleaf signalgrass (Brachiaria decumbens); experiment: Test B pre-/postemergence; conditions: for B. signalgrass plant response rating: Preemergence
Outline: as §2

[15] = test system: blackgrass (Alopecurus myosuroides); experiment: Test B pre-/postemergence; conditions: for Blackgrass plant response rating: Preemergence
Outline: as §2

[16] = test system: cocklebur (Xanthium strumarium); experiment: Test B pre-/postemergence; conditions: for Cocklebur plant response rating: Preemergence
Outline: as §2

[17] = test system: momingglory (Ipomoea hederacea); experiment: Test B pre-/postemergence
Outline: as §2

[18] = test system: pigweed (Amaranthus retroflexus); experiment: Test B pre-/postemergence
Outline: as §2

[19] = test system: purple nutsedge (Cyperus rotundus); experiment: Test B pre-/postemergence
Outline: as §2

[20] = test system: crabgrass (Digitaria sanguinalis); experiment: Test B pre-/postemergence; conditions: for Crabgrass plant response rating: Preemergence
Outline: as §2

[21] = Rate 62 g/ha, Postemergence (flood test)
[22] = Rate 125 g/ha, Postemergence, flood test
[23] = Rate 250 g/ha, Postemergence (flood test species)
[24] = Rate 125 g/ha, Postemergence section (flood test species)
[25] = Rate 250 g/ha, Postemergence (so in the source)

Cc1cnc(-c2ccc(Cl)cc2F)nc1Cc1cccc(C#N)c1 [Compound 35]
Plant response rating, Ducksalad [1, 21]: 0
Plant response rating, Ducksalad [1, 22]: 0
Plant response rating, Ducksalad [1, 23]: 1
Plant response rating, Rice [2, 21]: 0
Rice plant response rating [2, 24]: 1
Plant response rating, Rice [2, 23]: 1
Plant response rating, Barnyardgrass [3, 21]: 0
Plant response rating, Barnyardgrass [3, 22]: 2
Plant response rating, Barnyardgrass [3, 23]: 2
Plant response rating, S. Flatsedge [4, 21]: 1
S. Flatsedge plant response rating [4, 24]: 2
Plant response rating, S. Flatsedge [4, 23]: 2
Plant response rating, Rape ([5]; Rate 62 g/ha, Postemergence): 6
Rape plant response rating ([5]; Rate 62 g/ha, Preemergence): 0
Rape plant response rating ([5]; Rate 125 g/ha, Postemergence): 6
Rape plant response rating ([5]; Rate 125 g/ha, Preemergence): 0
Plant response rating, Rape ([5]; Rate 250 g/ha, Postemergence): 9
Plant response rating, Rape [5, 25]: 0
Plant response rating, Corn ([6]; Rate 62 g/ha, Postemergence): 1
Corn plant response rating ([6]; Rate 62 g/ha): 0
Plant response rating, Corn ([6]; Rate 125 g/ha, Postemergence): 1
Corn plant response rating ([6]; Rate 125 g/ha): 0
Plant response rating, Corn ([6]; Rate 250 g/ha, Postemergence): 1
Plant response rating, Corn [6, 25]: 0
Wheat plant response rating ([7]; Rate 62 g/ha, Postemergence): 0
Wheat plant response rating ([7]; Rate 62 g/ha, Preemergence): 0
Wheat plant response rating ([7]; Rate 125 g/ha, Postemergence): 0
Plant response rating, Wheat ([7]; Rate 125 g/ha, Preemergence): 0
Plant response rating, Wheat ([7]; Rate 250 g/ha, Postemergence): 1
Plant response rating, Wheat [7, 25]: 0
Plant response rating, Soybean ([8]; Rate 62 g/ha, Postemergence): 1
Soybean plant response rating ([8]; Rate 62 g/ha, Preemergence): 0
Soybean plant response rating ([8]; Rate 125 g/ha, Postemergence): 2
Plant response rating, Soybean ([8]; Rate 125 g/ha, Preemergence): 0
Plant response rating, Soybean ([8]; Rate 250 g/ha, Postemergence): 2
Plant response rating, Soybean [8, 25]: 0
Plant response rating, Sugarbeets ([9]; Rate 62 g/ha, Postemergence): 9
Sugarbeets plant response rating ([9]; Rate 62 g/ha, Preemergence): 0
Sugarbeets plant response rating ([9]; Rate 125 g/ha, Postemergence): 10
Plant response rating, Sugarbeets ([9]; Rate 125 g/ha, Preemergence): 0
Plant response rating, Sugarbeets ([9]; Rate 250 g/ha, Postemergence): 10
Plant response rating, Sugarbeets [9, 25]: 1
Plant response rating, Velvetleaf ([10]; Rate 62 g/ha, Postemergence): 1
Velvetleaf plant response rating ([10]; Rate 62 g/ha, Preemergence): 0
Velvetleaf plant response rating ([10]; Rate 125 g/ha, Postemergence): 1
Plant response rating, Velvetleaf ([10]; Rate 125 g/ha, Preemergence): 0
Plant response rating, Velvetleaf ([10]; Rate 250 g/ha, Postemergence): 1
Plant response rating, Velvetleaf [10, 25]: 1
Plant response rating, Bedstraw ([11]; Rate 62 g/ha, Postemergence): 6
Bedstraw plant response rating ([11]; Rate 62 g/ha): 0
Plant response rating, Bedstraw ([11]; Rate 125 g/ha, Postemergence): 6
Bedstraw plant response rating ([11]; Rate 125 g/ha): 0
Plant response rating, Bedstraw ([11]; Rate 250 g/ha, Postemergence): 8
Plant response rating, Bedstraw [11, 25]: 1
Plant response rating, Giant foxtail ([12]; Rate 62 g/ha, Postemergence): 1
Giant foxtail plant response rating ([12]; Rate 62 g/ha, Preemergence): 0
Giant foxtail plant response rating ([12]; Rate 125 g/ha, Postemergence): 1
Giant foxtail plant response rating ([12]; Rate 125 g/ha, Preemergence): 0
Plant response rating, Giant foxtail ([12]; Rate 250 g/ha, Postemergence): 1
Plant response rating, Giant foxtail [12, 25]: 1
Wild oats plant response rating ([13]; Rate 62 g/ha, Postemergence): 1
Wild oats plant response rating ([13]; Rate 62 g/ha, Preemergence): 0
Wild oats plant response rating ([13]; Rate 125 g/ha, Postemergence): 1
Plant response rating, Wild oats ([13]; Rate 125 g/ha, Preemergence): 0
Plant response rating, Wild oats ([13]; Rate 250 g/ha, Postemergence): 2
Plant response rating, Wild oats [13, 25]: 1
Plant response rating, B. signalgrass ([14]; Rate 62 g/ha, Postemergence): 1
B. signalgrass plant response rating ([14]; Rate 62 g/ha): 0
Plant response rating, B. signalgrass ([14]; Rate 125 g/ha, Postemergence): 1
B. signalgrass plant response rating ([14]; Rate 125 g/ha): 0
Plant response rating, B. signalgrass ([14]; Rate 250 g/ha, Postemergence): 1
Plant response rating, B. signalgrass ([14]; Rate 250 g/ha, Postemergence as printed in head r139 (second section for compounds 26-50)): 0
Plant response rating, Blackgrass ([15]; Rate 62 g/ha, Postemergence): 1
Blackgrass plant response rating ([15]; Rate 62 g/ha): 0
Plant response rating, Blackgrass ([15]; Rate 125 g/ha, Postemergence): 1
Blackgrass plant response rating ([15]; Rate 125 g/ha): 0
Plant response rating, Blackgrass ([15]; Rate 250 g/ha, Postemergence): 1
Plant response rating, Blackgrass [15, 25]: 0
Plant response rating, Cocklebur ([16]; Rate 62 g/ha, Postemergence): 2
Cocklebur plant response rating ([16]; Rate 62 g/ha): 0
Plant response rating, Cocklebur ([16]; Rate 125 g/ha, Postemergence): 2
Cocklebur plant response rating ([16]; Rate 125 g/ha): 0
Plant response rating, Cocklebur ([16]; Rate 250 g/ha, Postemergence): 2
Plant response rating, Cocklebur [16, 25]: 0
Plant response rating, Morningglory ([17]; Rate 62 g/ha, Postemergence): 1
Morningglory plant response rating ([17]; Rate 62 g/ha, Preemergence): 0
Morningglory plant response rating ([17]; Rate 125 g/ha, Postemergence): 1
Morningglory plant response rating ([17]; Rate 125 g/ha, Preemergence): 0
Plant response rating, Morningglory ([17]; Rate 250 g/ha, Postemergence): 1
Plant response rating, Morningglory [17, 25]: 0
Plant response rating, Redroot pigweed ([18]; Rate 62 g/ha, Postemergence): 3
Redroot pigweed plant response rating ([18]; Rate 62 g/ha, Preemergence): 0
Redroot pigweed plant response rating ([18]; Rate 125 g/ha, Postemergence): 3
Redroot pigweed plant response rating ([18]; Rate 125 g/ha, Preemergence): 0
Plant response rating, Redroot pigweed ([18]; Rate 250 g/ha, Postemergence): 5
Plant response rating, Redroot pigweed [18, 25]: 5
Plant response rating, Nutsedge ([19]; Rate 62 g/ha, Postemergence): 0
Nutsedge plant response rating ([19]; Rate 62 g/ha, Preemergence): 0
Nutsedge plant response rating ([19]; Rate 125 g/ha, Postemergence): 0
Nutsedge plant response rating ([19]; Rate 125 g/ha, Preemergence): 0
Plant response rating, Nutsedge ([19]; Rate 250 g/ha, Postemergence): 0
Plant response rating, Nutsedge [19, 25]: 0
Plant response rating, Crabgrass ([20]; Rate 62 g/ha, Postemergence): 2
Crabgrass plant response rating ([20]; Rate 62 g/ha): 0
Plant response rating, Crabgrass ([20]; Rate 125 g/ha, Postemergence): 2
Crabgrass plant response rating ([20]; Rate 125 g/ha): 1
Plant response rating, Crabgrass ([20]; Rate 250 g/ha, Postemergence): 2
Plant response rating, Crabgrass [20, 25]: 1

— US6525001B1, “Substituted pyrimidine and pyridine herbicides” (Mid-American Commercialization Corporation, priority 1997, dated 2003)
